Measurements published in ChEMBL document CHEMBL4842386, “Discovery of Reldesemtiv, a Fast Skeletal Muscle Troponin Activator for the Treatment of Impaired Muscle Function” (J Med Chem, 2021).

Experiments:
[1] = Metabolic stability in dog liver microsomes assessed as intrinsic clearance measured after 90 mins by HPLC/MS/MS analysis; assay type: ADME, Canis lupus familiaris, Microsome; conditions: read-out: CLH
[2] = Volume of distribution at steady state in Beagle dog at 3 mg/kg, po administered as single dose measured up to 24 hrs by HPLC analysis; assay type: ADME, organism-based, Canis lupus familiaris; conditions: in vivo
[3] = Metabolic stability in human liver microsomes assessed as intrinsic clearance measured after 90 mins by HPLC/MS/MS analysis; assay type: ADME, Microsome; conditions: read-out: CLH
[4] = Drug distribution in Sprague-Dawley rat brain to blood ratio at 100 mg/kg, po by HPLC analysis; assay type: ADME, organism-based
[5] = Intrinsic clearance in monkey hepatocytes; assay type: ADME, cell-based, Macaca mulatta, Hepatocyte; conditions: rhesus monkey, read-out: CLH
[6] = Efflux ratio of apparent permeability in human Caco-2 cells; assay type: ADME, cell-based
[7] = target: T1, Nuclear receptor subfamily 1 group I member 2 (Homo sapiens, UniProt O75469); test: Transactivation of human PXR transfected in DPX2 cells assessed as CYP3A4 induction at 10 uM by luciferase reporter gene assay; assay type: ADME, cell-based; conditions: dpx2, 10 µM
T1 sequence (O75469 whole entry): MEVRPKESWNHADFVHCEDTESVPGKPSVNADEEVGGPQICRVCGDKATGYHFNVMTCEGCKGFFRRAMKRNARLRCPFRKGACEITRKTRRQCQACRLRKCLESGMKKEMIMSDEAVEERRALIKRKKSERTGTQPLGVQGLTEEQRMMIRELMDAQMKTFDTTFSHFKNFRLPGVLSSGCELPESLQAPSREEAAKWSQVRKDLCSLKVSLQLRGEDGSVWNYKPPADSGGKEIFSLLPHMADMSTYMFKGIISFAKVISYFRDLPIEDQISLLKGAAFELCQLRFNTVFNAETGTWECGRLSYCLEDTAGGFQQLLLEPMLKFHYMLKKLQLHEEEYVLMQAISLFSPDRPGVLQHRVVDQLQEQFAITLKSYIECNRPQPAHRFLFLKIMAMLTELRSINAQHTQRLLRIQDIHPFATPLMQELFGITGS

[8] = Clearance in female Sprague-Dawley rat at 3 mg/kg, po administered as single dose measured up to 24 hrs by HPLC analysis; assay type: ADME, organism-based; conditions: in vivo
[9] = Drug distribution in Sprague-Dawley rat Soleus muscle to blood ratio at 100 mg/kg, po by HPLC analysis; assay type: ADME, organism-based
[10] = Clearance in mouse at 3 mg/kg, po administered as single dose measured up to 24 hrs by HPLC analysis; assay type: ADME, organism-based; conditions: in vivo
[11] = test system: Psoas muscle; test: Activation of fast twitch skeletal muscle in rabbit psoas muscle myofibrils by measuring increase in myofibril ATPase activity at 25% calcium concentration; assay type: functional; conditions: Oryctolagus cuniculus
[12] = Volume of distribution at steady state in male Sprague-Dawley rat at 3 mg/kg, po administered as single dose measured up to 24 hrs by HPLC analysis; assay type: ADME, organism-based; conditions: in vivo
[13] = Metabolic stability in female rat liver microsomes assessed as intrinsic clearance measured after 90 mins by HPLC/MS/MS analysis; assay type: ADME, Microsome; conditions: read-out: CLH
[14] = Plasma protein binding in monkey assessed as unbound fraction; assay type: ADME, cell-free, Macaca mulatta; conditions: rhesus monkey
[15] = Metabolic stability in male rat liver microsomes assessed as intrinsic clearance measured after 90 mins by HPLC/MS/MS analysis; assay type: ADME, Microsome; conditions: read-out: CLH
[16] = Volume of distribution at steady state in cynomolgus monkey at 3 mg/kg, po administered as single dose measured up to 24 hrs by HPLC analysis; assay type: ADME, organism-based, Macaca fascicularis; conditions: in vivo
[17] = Intrinsic clearance in dog hepatocytes; assay type: ADME, cell-based, Canis lupus familiaris, Hepatocyte; conditions: read-out: CLH
[18] = Drug distribution in Sprague-Dawley rat plasma to blood ratio at 100 mg/kg, po by HPLC analysis; assay type: ADME, organism-based; conditions: in vivo
[19] = Intrinsic clearance in male rat hepatocytes; assay type: ADME, cell-based, Hepatocyte; conditions: read-out: CLH
[20] = Oral bioavailability in Beagle dog at 3 mg/kg administered as single dose measured up to 24 hrs by HPLC analysis; assay type: ADME, organism-based, Canis lupus familiaris; conditions: in vivo
[21] = Plasma protein binding in dog assessed as unbound fraction; assay type: ADME, cell-free, Canis lupus familiaris
[22] = Oral bioavailability in cynomolgus monkey at 3 mg/kg administered as single dose measured up to 24 hrs by HPLC analysis; assay type: ADME, organism-based, Macaca fascicularis; conditions: in vivo
[23] = Plasma protein binding in female rat assessed as unbound fraction; assay type: ADME, cell-free
[24] = Clearance in male Sprague-Dawley rat at 3 mg/kg, po administered as single dose measured up to 24 hrs by HPLC analysis; assay type: ADME, organism-based; conditions: in vivo
[25] = test system: Extensor digitorum longus; test: Increase in muscle tension in rat extensor digitorum longus muscle rat model assessed as free plasma concentration to increase muscle tension at subtetanic nerve stimulation rate of 30 Hz; assay type: functional, tissue-based
[26] = test system: Psoas muscle; test: Increase in psoas muscle force in rabbit skinned single fiber preparation at a calcium concentration that produces a force increase that is 25% of the maximum response in a control preparation by skinned fast skeletal muscle fiber assay; assay type: functional; conditions: Oryctolagus cuniculus
[27] = Intrinsic clearance in female rat hepatocytes; assay type: ADME, cell-based, Hepatocyte; conditions: read-out: CLH
[28] = Plasma protein binding in human assessed as unbound fraction; assay type: ADME, cell-free
[29] = Clearance in Beagle dog at 3 mg/kg, po administered as single dose measured up to 24 hrs by HPLC analysis; assay type: ADME, organism-based, Canis lupus familiaris; conditions: in vivo
[30] = target: hERG (KCNH2) (Homo sapiens, UniProt Q12809); test: Displacement of [3H]astemizole from human ERG expressed in HEK293 cells at 100 uM relative to control; assay type: cell-based; conditions: HEK293 cells that express hERG, probe [3H]astemizole
[31] = Metabolic stability in monkey liver microsomes assessed as intrinsic clearance measured after 90 mins by HPLC/MS/MS analysis; assay type: ADME, Macaca mulatta, Microsome; conditions: rhesus monkey, read-out: CLH
[32] = Oral bioavailability in female Sprague-Dawley rat at 3 mg/kg administered as single dose measured up to 24 hrs by HPLC analysis; assay type: ADME, organism-based; conditions: in vivo
[33] = Volume of distribution at steady state in female Sprague-Dawley rat at 3 mg/kg, po administered as single dose measured up to 24 hrs by HPLC analysis; assay type: ADME, organism-based; conditions: in vivo
[34] = Clearance in cynomolgus monkey at 3 mg/kg, po administered as single dose measured up to 24 hrs by HPLC analysis; assay type: ADME, organism-based, Macaca fascicularis; conditions: in vivo
[35] = Volume of distribution at steady state in mouse at 3 mg/kg, po administered as single dose measured up to 24 hrs by HPLC analysis; assay type: ADME, organism-based; conditions: in vivo
[36] = Intrinsic clearance in human hepatocytes; assay type: ADME, cell-based, Hepatocyte; conditions: read-out: CLH
[37] = Plasma protein binding in male rat assessed as unbound fraction; assay type: ADME, cell-free
[38] = Drug distribution in Sprague-Dawley rat extensor digitorum longus to blood ratio at 100 mg/kg, po by HPLC analysis; assay type: ADME, organism-based
[39] = Oral bioavailability in mouse at 3 mg/kg administered as single dose measured up to 24 hrs by HPLC analysis; assay type: ADME, organism-based; conditions: in vivo

hERG (KCNH2), sequence (Q12809 whole entry): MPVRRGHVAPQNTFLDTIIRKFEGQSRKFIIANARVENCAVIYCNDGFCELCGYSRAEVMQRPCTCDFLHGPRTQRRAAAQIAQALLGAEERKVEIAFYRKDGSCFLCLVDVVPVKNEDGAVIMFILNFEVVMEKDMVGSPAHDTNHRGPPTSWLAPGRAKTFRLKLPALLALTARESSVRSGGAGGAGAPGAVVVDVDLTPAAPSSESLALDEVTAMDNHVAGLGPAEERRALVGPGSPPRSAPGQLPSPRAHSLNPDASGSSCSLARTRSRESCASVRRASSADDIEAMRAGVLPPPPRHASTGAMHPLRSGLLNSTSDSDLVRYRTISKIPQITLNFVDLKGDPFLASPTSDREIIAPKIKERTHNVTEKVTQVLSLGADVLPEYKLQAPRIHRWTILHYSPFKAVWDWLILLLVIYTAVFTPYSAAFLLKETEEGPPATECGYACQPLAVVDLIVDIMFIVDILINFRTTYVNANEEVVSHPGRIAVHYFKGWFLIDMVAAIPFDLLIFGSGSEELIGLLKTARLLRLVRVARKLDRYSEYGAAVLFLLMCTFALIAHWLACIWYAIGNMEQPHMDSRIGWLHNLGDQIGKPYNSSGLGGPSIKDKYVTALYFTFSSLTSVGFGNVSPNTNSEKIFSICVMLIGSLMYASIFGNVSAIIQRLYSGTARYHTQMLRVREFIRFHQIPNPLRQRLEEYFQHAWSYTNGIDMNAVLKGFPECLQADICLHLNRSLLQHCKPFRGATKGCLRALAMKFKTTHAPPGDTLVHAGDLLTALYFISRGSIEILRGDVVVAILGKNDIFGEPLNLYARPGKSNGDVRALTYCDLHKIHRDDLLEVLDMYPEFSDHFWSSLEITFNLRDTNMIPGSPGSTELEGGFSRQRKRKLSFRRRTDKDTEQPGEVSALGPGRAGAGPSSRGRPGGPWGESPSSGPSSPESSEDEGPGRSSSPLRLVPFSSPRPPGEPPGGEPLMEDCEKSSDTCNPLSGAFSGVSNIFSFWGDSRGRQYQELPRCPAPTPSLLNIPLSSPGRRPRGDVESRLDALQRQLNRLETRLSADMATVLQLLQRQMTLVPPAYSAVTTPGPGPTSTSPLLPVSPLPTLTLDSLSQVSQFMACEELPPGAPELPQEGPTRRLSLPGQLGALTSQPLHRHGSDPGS

`NC(=O)c1ccn(-c2cnc(NC[C@]3(c4ncccc4F)C[C@H](F)C3)nc2)c1` [RELDESEMTIV] gave a CLint scaled [1] of 11 mL/min/kg, a Vdss [2] of 1.9 L/kg and a CLint scaled [3] of less than 14 mL/min/kg. It also gave a Kp [4] of 0.063, a CLint scaled [5] of 23 mL/min/kg and an efflux ratio [6] of 3.1. For the same compound, the Activity [7] was 18%, the CL/F [8] was 24 mL/min/kg and the Kp [9] was 0.77. It also gave a CL/F [10] of 86 mL/min/kg, an EC40 [11] of 600 nM and a Vdss [12] of 2.6 L/kg. It also gave a CLint scaled [13] of 15 mL/min/kg, a fraction unbound [14] of 0.49 and a CLint scaled [15] of 15 mL/min/kg. It also gave a Vdss [16] of 1.3 L/kg, a CLint scaled [17] of 37 mL/min/kg and a Ratio [18] of 1. For the same compound, the CLint scaled [19] was 56 mL/min/kg, the bioavailability [20] was 25% and the fraction unbound [21] was 0.5. For the same compound, the bioavailability [22] was 26%, the fraction unbound [23] was 0.5 and the CL/F [24] was 74 mL/min/kg. It also gave an EC50 [25] of 38000 nM, an EC30 [26] of 800 nM and a CLint scaled [27] of 217 mL/min/kg. It also gave a fraction unbound [28] of 0.49, a CL/F [29] of 22 mL/min/kg and an inhibition at 100 µM [30] of 33%. For the same compound, the CLint scaled [31] was 18 mL/min/kg, the bioavailability [32] was 45% and the Vdss [33] was 1.3 L/kg. The CL/F [34] was 13 mL/min/kg, the Vdss [35] was 3.3 L/kg and the CLint scaled [36] was less than 14 mL/min/kg. The fraction unbound [37] was 0.5, the Kp [38] was 0.85 and the bioavailability [39] was 47%.
